From US20180289655A1, “Methods and Compositions for the Intravenous Administration of Fumarates for the Treatment of Neurological Diseases” (Biogen MA Inc., priority 2015, published 2018) come the findings set out here.

The test system of assay [1] is prototypical Nrf2 response genes (Akr1b8, Gclc, Hmox1, Nqo1, Txnrd1, Osgin1). Briefly: qRT-PCR of Nrf2 response genes in tissues after DMF PO or IV. As to conditions: for Nrf2 genes significantly modulated, forebrain / Nrf2 genes significantly modulated, jejunum / Nrf2 genes significantly modulated, kidney / Nrf2 genes significantly modulated, cerebellum / Nrf2 genes significantly modulated, spleen: 2 and 6 hours, vs vehicle. It counts as in vivo, Sprague-Dawley rats. The protocol: On Day 5 of the study 3 time points were evaluated: 10 minutes, 2 hours, and 6 hours after dosing, as illustrated in the timeline. At each time point, 5 animals from each group were sacrificed. At the 2 and 6 hour time points, the tissue samples from groups E, F, I, and J from each animal were split, with half of the tissue being processed for MMF exposure, and half processed for qRT-PCR. Note vehicle groups (C, D, G, and H) were not processed for MMF measurement and only used for qRT-PCR.
Two and 6 hours after dosing, cohorts of animals from Groups C, D, E and F and G, H, I and J, respectively, were sacrificed and tissues (forebrain, cerebellum, jejunum, kidney, and spleen) were collected for RNA analysis by qRT-PCR for expression of prototypical Nrf2 response genes.
For RNA preparation, frozen tissues were placed in 2 mL RNAse-free 96-well blocks with 1.5 mL QIAzol Lysis Reagent (QIAgen) and a 3.2 mm stainless steel bead (BioSpec Products, Bartlesville, Okla.). Tissues were disrupted for four cycles of 45 seconds in a Mini-Beadbeater (Biospec Products). RNA was extracted in chloroform and the aqueous phase was mixed with an equal volume of 70% ethanol. Extracted RNA was applied to RNeasy 96 plates and purified by the spin method according to the manufacturer's protocol (RNeasy 96 Universal Tissue Protocol, QIAgen, Hilden Germany).
Samples were reverse-transcribed into cDNA according to the manufacturer's protocols (Life Technologies, Carlsbad, Calif.) and analyzed by real-time polymerase chain reaction (qPCR). Rat target gene primers and 6-FAM™ dye-labeled TaqMan® MGB™ probes (Life Technologies) were used. Reactions containing 100 ng of cDNA, 900 nM of each primer, and 250 nM TaqMan probes were cycled on a QuantStudio 12 k-flex system (Life Technologies) once for 10 minutes at 95° C., followed by 40 cycles of 95° C. for 10 seconds and 60° C. for 1 minute. All samples were measured in triplicate with Gapdh as a normalizing gene. Taqman primer/probe sets from Life Technologies included: Akr1b8 (Rn00756513_m1); Gclc (Rn00689046_m1); Hmox1 (Rn01536933_m1); Nqo1 (Rn00566528_m1); Txnrd1 (Rn01503798_m1); Osgin1 (Rn00593303_m1) and Gapdh (Rn01775763_g1). Final analysis was performed using the comparative CT method to calculate fold changes and samples were normalized relative to vehicle controls at each time point. In all graphs, the mean fold-change (±standard deviation) is depicted.

The next assay concerns Nrf2 target genes. Briefly: qRT-PCR of Nrf2 target genes, statements over all tested genes. It is filed as in vivo, C57BL/6 mice. The protocol: For RNA preparation, frozen tissues were placed in 2 mL RNAse-free 96-well blocks with 1.5 mL QIAzol Lysis Reagent (QIAgen) and a 3.2 mm stainless steel bead (BioSpec Products, Bartlesville, Okla.). Tissues were disrupted for four cycles of 45 seconds in a Mini-Beadbeater (Biospec Products). RNA was extracted with chloroform and the aqueous phase was mixed with an equal volume of 70% ethanol. Extracted RNA was applied to RNeasy 96 plates and purified by the spin method according to the manufacturer's protocol (RNeasy 96 Universal Tissue Protocol, QIAgen, Hilden Germany).
Samples were reverse-transcribed into cDNA according to the manufacturer protocols using the High Capacity cDNA Reverse Transcription Kit (Life Technologies, Carlsbad, Calif.) and analyzed by qRT-PCR. Mouse target gene primers and 6-FAM™ dye-labeled TaqMan® MGB™ probes (Life Technologies) were used. Reactions containing 100 ng of cDNA, 900 nM of each primer, and 250 nM TaqMan probes were cycled on a QuantStudio 12 k-flex system (Life Technologies) once for 10 minutes at 95° C., followed by 40 cycles of 95° C. for 10 seconds and 60° C. for 1 minute. All samples were measured in triplicate with Gapdh as a normalizing gene. Taqman primer/probe sets from Life Technologies included: Akr1b8 (Mm00484314_m1); Gapdh (Mm03302249_g1); Gclc (Mm00802655_m1); Hmox1 (Mm00516005_m1); Nqo1 (Mm01253561_m1); and Osgin1 (Mm00660947_m1). Comparative CT method was used to calculate fold changes and samples were normalized relative to time-matched vehicle control.
At the 10-minute time point, 4 animals from each group were sacrificed, with plasma and tissues (brain, jejunum and kidney) collected to determine MMF exposure. Two hours after dosing, the remaining 4 animals were sacrificed, and plasma and tissues were collected. Tissue samples from the 2-hour time point were divided, with half of each sample used for MMF exposure analysis, and half for RNA extraction and qRT-PCR to evaluate the expression of Nrf2 target genes.
Ten minutes after dosing, 4 animals from each group were sacrificed, and plasma and tissues (brain, kidney, jejunum and spleen) were collected to quantify MMF exposure levels, as well as whole blood to perform CBC. Two hours post-dose, another 4 animals from each group were sacrificed, and plasma, whole blood, and tissues were collected. Tissue samples from the 2-hour time point were split, with half of each sample used for MMF exposure analysis, and half for RNA extraction/qRT-PCR to evaluate the expression of Nrf2 target genes. Six hours after dosing, the last 4 animals from each group were sacrificed, and whole blood and tissues were collected.
A CBC with differential panel was performed at 10 minutes post-last dose via facial vein bleeding, and at 2 hours after the last dose, pharmacodynamic Nrf2 transcriptional responses were analyzed in tissues from the same animals. Histopathology was also performed on regions of the tail in a pilot toxicology study.

[2] abbreviates: Study 3, DMF IV 30 mg/kg once daily x5, 2 hours after dosing.

Entries after “also recorded” stand apart in the source; their conditions may differ. Structures can show the parent of a compound that is named as a salt.

Take `COC(=O)/C=C/C(=O)OC` [DMF, dimethyl fumarate]: in assay [1] (DMF IV 30 mg/kg), the “Nrf2 genes significantly modulated, forebrain” value was “significant modulation of Nqo1, Osgin1, Akr1b8, and Hmox1 at both 2 and 6 hours”; the “Nrf2 genes significantly modulated, jejunum” value was “significant increases were observed for Nqo1 and Hmox1 at 6 hours, and in Osgin1 expression at 2 hours”; the “Nrf2 genes significantly modulated, kidney” value was “significant modulation of Nqo1 and Txnrd1 at 2 and 6 hours, and Hmox1 only at 2 hours”. In assay [1] (DMF IV 30 mg/kg, 30 mg/kg), the “Nrf2 genes significantly modulated, cerebellum” value is “significant modulation was observed for Nqo1, Osgin1, Akr1b8, and Hmox1 at both 2 and 6 hours; also recorded: significant increase in the transcriptional responses of Gclc and Txnrd1 in the cerebellum, but only at the later 6-hour time point”; the “Nrf2 genes significantly modulated, spleen” value is “significant transcriptional increases were noted for Osgin1 at both 2 and 6 hour time points; also recorded: significant changes in Akr1b8 and Txnrd1 were observed only at the 2 hour time point; also recorded: A significant change in Nqo1 was also found 6 hours after DMF IV dosing”. For the same compound, in assay [1] (DMF PO 100 mg/kg or IV 30 mg/kg), the “Hmox1 expression in spleen” value is recorded as “No changes were observed”. In addition, in assay [1] (DMF PO 100 mg/kg), the “Nrf2 genes significantly modulated, cerebellum” value was “significant modulation of 3 genes in cerebellar tissue: Osgin1 at 2 and 6 hours, Akr1b8 at 2 hours, and Hmox1 at the 6 hour time point”; the “Nrf2 genes significantly modulated, forebrain” value is “modulation of only two genes: Osgin1 at 2 and 6 hours and Akr1b8 only at 2 hours”; the “Nrf2 genes significantly modulated, spleen” value was “significant increases in Nqo1, Osgin1, Akr1b8, Gclc, and Txnrd1 at both 2 and 6 hours”. Moreover, in assay [1] (DMF PO 100 mg/kg, 100 mg/kg), the “Nrf2 genes significantly modulated, jejunum” value is “significant increases in Osgin1, Akr1b8, and Txnrd1 at both 2 and 6 hours; also recorded: Nqo1 expression was increased after PO DMF dosing only at the 6-hour time point; also recorded: significant increases in Gclc and Hmox1 were observed at the 2-hour time point”; the “Nrf2 genes significantly modulated, kidney” value was “significant changes at both 2 and 6 hour time points for Nqo1, Hmox1, and Txnrd1; also recorded: Osgin1 was significantly modulated only at the 2 hour time point”. The “Relationship of MMF exposure (10 minutes) and pharmacodynamic response (2 or 6 hours)” value in assay [1] (forebrain, kidney and spleen, PO 100 mg/kg and IV 30 mg/kg) is “clear positive correlation in MMF exposure and pharmacodynamic response”. For the same compound, the “Changes in gene expression, jejunum” value in the assay on Nrf2 target genes (Study 1, DMF IV 17.5 mg/kg, 2 hours) is reported as “No significant changes in gene expression”. For the same compound, in the assay on Nrf2 target genes (Study 2, DMF IV 30 mg/kg, 2 hours), the “Changes in transcript levels, kidney” value is “No significant changes”. Moreover, in the assay with Nrf2 target genes (setting [2]), the “Genes significantly increased, brain” value is “significant increase was observed in brain Hmox1, Osgin1, and Gclc levels”; the “Genes significantly increased, kidney and jejunum” value was “Significant increases were also observed in Akr1b8, Nqo1, and Osgin1 levels”. For the same compound, the “Other transcripts in tissues analyzed” value in the assay with Nrf2 target genes (Study 3, DMF IV 30 mg/kg once daily x5, 2 hours post-last dose) was “generally unaffected”.
